These results are taken from US6887847B2, “Virus derived antimicrobial peptides” (University of Pittsburgh, priority 2001, dated 2005).

In data set [1] the target is Ca^2+-saturated calmodulin (Homo sapiens, UniProt P0DP23). The following applies: host cell Ca^2+-saturated calmodulin; cited from earlier work.
The subject of data set [2] is Staphylococcus aureus. The following applies: 1×10^5 colony-forming units; cited from earlier work.
The test system of data set [3] is diverse gram-negative and -positive bacterial isolates. The following applies: cited from earlier work.
For the next data set, the system named is Pseudomonas aeruginosa. The data set is classed as cell-based. From the text: (§1) The assays for growth inhibition of a microbial target can be used to derive a minimum bactericidal concentration (MBC) value for the peptide, i.e., the concentration of peptide required to kill 99.9% of the microbial sample being tested. This value is well known to those in the art as representative of the effectiveness of a particular antimicrobial agent (e.g., an antibiotic) against a particular organism or group of organisms. In assays to detect the MBC of a peptide, growth inhibition of a bacterial population also can be measured with reference to the number of colony forming units (cfu) after exposure to a peptide relative to a control experiment without a peptide.
(§2) Bacterial lysis assay. Bacterial lysis assays were conducted in a manner similar to that described previously (Lehrer, R. I., M. E. Selsted, D. Szklarek, and F. J. 1983. Infect. Immun. 42: 10-4, 1983; Miller, M. A., R. F. Garry, J. M. Jaynes, and R. C. Montelaro, AIDS Res Hum Retroviruses 7: 511-519, 1991). Bacterial suspensions were cultured in Luria-Bertani Broth to mid-log growth phase and washed by two cycles of centrifugation and suspension in 10 mM phosphate buffer. The Abs600 of the suspension was adjusted with 10 mM phosphate buffer such that, upon dilution, 5-10×10^5 cfu/mL would be treated in the assay. Bacteria were incubated for 1 h with two-fold dilutions of peptides (100 μM to 100 nM) in 96-well plates using 10 mM phosphate buffer, pH 7.2, as a diluent. Ten-fold dilutions of bacteria were performed to 1:1000; a 100 μl aliquot from each condition was spread on the surface of tryptic soy agar plates (Difco, Detroit, Mich.) which were incubated overnight. Colonies of surviving bacteria (cfu, colony-forming units) were counted and compared to untreated controls to determine the amount of peptide-induced killing under each condition. Log killing is defined as the log of the ratio of cfu present before and after treatment with peptide. The minimal bactericidal concentration, MBC, is the peptide concentration at which 99.9% (three log) killing is achieved (Pearson et al., Antimicrob. Agents Chemother. 18: 699-708, 1980).
(§3) A limitation of many host-derived antimicrobial peptides is their decreased activity at physiologic (150 mM) NaCl concentration. See Friedrich et al., Antimicrobial Agents and Chemotherapy 43:1542-1548. The peptides WLSA-5 (SEQ ID NO:3) and LL37 were tested against the two index strains at physiologic NaCl. […] The activity of eLLPs and LBUs of this invention were compared to an expanded list of clinical bacterial isolates. These are summarized in Table 2 by comparing their MBCs in phosphate buffer alone (low salt) and phosphate buffer containing 150 mM NaCl (physiologic conditions). Inspection of this table would lead one skilled in the art to conclude that the activity of eLLPs and LBUs compare favorably to the host derived antimicrobial peptides as it relates to the spectrum and potency of antimicrobial activity.

Data set [4] relates to Staphylococcus aureus. The experiment in a line: Bacterial lysis (broth dilution) assay, MBC. The class given is cell-based.
From the text: as §1, §2, §3
Background: Broth dilution looks for growth in wells or tubes with falling amounts of substance.

Data set [5] has as its system Methicillin Resistant S. aureus. The class given is cell-based, Staphylococcus aureus. To be noted: 0 mM NaCl (phosphate buffer, low salt).
From the text: as §1
Bacterial lysis assay. Bacterial lysis assays were conducted in a manner similar to that described previously (Lehrer, R. I., M. E. Selsted, D. Szklarek, and F. J. 1983. Infect. Immun. 42: 10-4, 1983; Miller, M. A., R. F. Garry, J. M. Jaynes, and R. C. Montelaro, AIDS Res Hum Retroviruses 7: 511-519, 1991). Bacterial suspensions were cultured in Luria-Bertani Broth to mid-log growth phase and washed by two cycles of centrifugation and suspension in 10 mM phosphate buffer. […] Colonies of surviving bacteria (cfu, colony-forming units) were counted and compared to untreated controls to determine the amount of peptide-induced killing under each condition. […]

The nature of data set [6]: Rabbit joint model of septic arthritis. The data set is classed as in vivo, New Zealand white rabbit. The following applies: peptide administered alone, all animal experiments. From the text:
We have extended these findings to a septic arthritis animal model. In this study joint sepsis was induced by inoculating one knee of a 2.5 Kg New Zealand white rabbit with 1×10^5 colony forming units of a clinical S. aureus isolate, a strain resistant to penicillin but sensitive to methicillin, cephalosporins, and clindamycin. Using this model, symptoms of septic arthritis (e.g., degradation of the synovium) were monitored and the ability of antimicrobial agents to limit the degeneration of the joint post-infection can be assessed. In this application the bacterial infection is allowed to establish for 1 h. At this point the joint was accessed and increasing concentrations of LSA-5 (SEQ ID NO:2) (0, 50, 100, and 200 μM) in phosphate buffer (PB) was administered intraarticularly. The concentration of bacteria associated with joint fluid was established at time 0 and 1 h post LSA-5 (SEQ ID NO:2) instillation by plating dilutions of the synovial fluid on LB agar.
This was compared with multiple injections of a standard 0.35% neomycin or a combination of neomycin and LSA-5 (SEQ ID NO:2). Administration of each of these formulations was performed intraarticularly at time 0,1, and 2 h.

Setting [7] is: 0 mM NaCl (phosphate buffer, low salt).

Molecules are shown by their SMILES. In brackets after ≈: the same amount, converted by molar mass. Where two headings read alike, the source gives them in different places. Residues, ends and D or L forms follow the SMILES beside them.

`CC[C@H](C)[C@H](NC(=O)[C@H](C)NC(=O)[C@H](CCCNC(=N)N)NC(=O)[C@H](CS)NC(=O)[C@H](C)NC(=O)CNC(=O)[C@H](CCC(N)=O)NC(=O)[C@@H](NC(=O)[C@@H](NC(=O)[C@H](CCC(=O)O)NC(=O)[C@@H](NC(=O)[C@@H](NC(=O)[C@@H](N)CCCNC(=N)N)C(C)C)[C@@H](C)CC)C(C)C)C(C)C)C(=O)N[C@@H](CCCNC(=N)N)C(=O)N[C@@H](Cc1c[nH]cn1)C(=O)N[C@H](C(=O)N1CCC[C@H]1C(=O)N[C@@H](CCCNC(=N)N)C(=O)N[C@@H](CCCNC(=N)N)C(=O)N[C@H](C(=O)N[C@@H](CCCNC(=N)N)C(=O)N[C@@H](CCC(N)=O)C(=O)NCC(=O)N[C@@H](CC(C)C)C(=O)N[C@@H](CCC(=O)O)C(=O)N[C@@H](CCCNC(=N)N)C(=O)N[C@H](C(=O)N[C@@H](CC(C)C)C(=O)O)[C@@H](C)CC)[C@@H](C)CC)[C@@H](C)CC` [LLP1] (H-RVIEVVQGACRAIRHIPRRIRQGLERIL-OH; N-terminus and C-terminus assumed): the calmodulin binding affinity entry in data set [1] is “near nanomolar affinity”. Further, the “time to nearly sterilize suspension” value in the data set on Staphylococcus aureus [2] was no more than 60 s. Besides, the “antibacterial activity compared with magainin-2” value in data set [3] is on record as “equal to, or more potent than magainin-2”.
As usually defined, the MBC is the lowest tested concentration that kills the bacteria rather than only halting them. `CC[C@H](C)[C@H](NC(=O)[C@H](C)NC(=O)[C@H](CCCNC(=N)N)NC(=O)[C@H](CS)NC(=O)[C@H](C)NC(=O)[C@H](CCCNC(=N)N)NC(=O)[C@H](CCC(N)=O)NC(=O)[C@@H](NC(=O)[C@@H](NC(=O)[C@H](CCCNC(=N)N)NC(=O)[C@@H](NC(=O)[C@@H](NC(=O)[C@@H](N)CCCNC(=N)N)C(C)C)[C@@H](C)CC)C(C)C)C(C)C)C(=O)N[C@@H](CCCNC(=N)N)C(=O)N[C@@H](Cc1c[nH]cn1)C(=O)N[C@H](C(=O)N[C@H](C(=O)N[C@@H](CCCNC(=N)N)C(=O)N[C@@H](CCCNC(=N)N)C(=O)N[C@H](C(=O)N[C@@H](CCCNC(=N)N)C(=O)N[C@@H](CCC(N)=O)C(=O)NCC(=O)N[C@@H](CC(C)C)C(=O)N[C@@H](CCCNC(=N)N)C(=O)N[C@@H](CCCNC(=N)N)C(=O)N[C@H](C(=O)N[C@@H](CC(C)C)C(=O)N[C@@H](CCCNC(=N)N)C(=O)N[C@H](C(=O)N[C@H](C(=O)O)C(C)C)C(C)C)[C@@H](C)CC)[C@@H](C)CC)C(C)C)[C@@H](C)CC` [LSA-5] (H-RVIRVVQRACRAIRHIVRRIRQGLRRILRVV-OH): the MBC with Pseudomonas aeruginosa (setting [7]) came out at 0.8 µM; with Pseudomonas aeruginosa (150 mM NaCl (physiologic)), 0.8 µM (≈ 3.06 µg/mL); with Staphylococcus aureus [4] (setting [7]), 1 µM; with Staphylococcus aureus [4] (150 mM NaCl (physiologic)) it was 1 µM (≈ 3.82 µg/mL); in data set [5], 0.15 µM. Also, the adverse toxicity result in data set [6] is “no adverse toxicity was observed”.
